Test results published in US9629861B2, “Compositions and methods for treating bacterial infections using ceftaroline” (Forest Laboratories Holdings Limited, priority 2009, dated 2017).
Where two headings read alike, the source gives them in different places.

Legend:
[1] = Pharmacokinetics in healthy elderly subjects; format: in vivo, human; details: healthy elderly (≧65 years); 600 mg IV dose
CYP1A1 = target: T1, CYP1A1 (Homo sapiens, UniProt P04798); assay: CYP inhibition in human liver microsomes; format: in vitro ADME
T1 construct: In vitro studies in human liver microsomes; from tissue; host or cells: human liver microsomes

CYP1A2 [2] = target: CYP1A2 (Homo sapiens, UniProt P05177); format: in vitro ADME; details: human liver microsomes
CYP2A6 = target: T2, CYP2A6 (Homo sapiens, UniProt P11509); assay: CYP inhibition in human liver microsomes; format: in vitro ADME
T2 construct: In vitro studies in human liver microsomes; from tissue; host or cells: human liver microsomes

CYP2B6 [3] = target: T3, CYP2B6 (Homo sapiens, UniProt P20813); assay: CYP inhibition in human liver microsomes; format: in vitro ADME
T3 construct: In vitro studies in human liver microsomes; from tissue; host or cells: human liver microsomes

CYP2D6 = target: T4, CYP2D6 (Homo sapiens, UniProt P10635); assay: CYP inhibition in human liver microsomes; format: in vitro ADME
T4 construct: In vitro studies in human liver microsomes; from tissue; host or cells: human liver microsomes

CYP2E1 = target: T5, CYP2E1 (Homo sapiens, UniProt P05181); assay: CYP inhibition in human liver microsomes; format: in vitro ADME
T5 construct: In vitro studies in human liver microsomes; from tissue; host or cells: human liver microsomes

CYP3A4 = target: T6, CYP3A4 (Homo sapiens, UniProt P08684); assay: CYP inhibition in human liver microsomes; format: in vitro ADME
T6 construct: In vitro studies in human liver microsomes; from tissue; host or cells: human liver microsomes

CYP2B6 [4] = assay: CYP induction in human hepatocytes; format: in vitro ADME
CYP2C9 = assay: CYP induction in human hepatocytes; format: in vitro ADME
[5] = test system: complicated skin and skin structure infections (cSSSI); assay: Two Phase 3 studies in cSSSI, integrated; format: in vivo, human; details: co-primary CE and MITT populations
Procedure: A total of 1396 adults with clinically documented complicated skin and skin structure infections (cSSSI) were enrolled in two randomized, multi-center, multinational, double-blind, studies comparing 600 mg ceftaroline fosamil administered intravenously over 1 hour every 12 hours to vancomycin plus aztreonam [1 g vancomycin administered intravenously over 1 hour followed by 1 g aztreonam administered intravenously over 1 hour every 12 hours]. Patients with cSSSI (deep/extensive cellulitis, a major abscess, a wound infection [surgical or traumatic], infected insect bites, burns or ulcers, lower extremity infection in patients with diabetes mellitus or peripheral vascular disease), were enrolled in the studies. Treatment duration was 5 to 14 days. A switch to oral therapy was not allowed. The Modified Intent-to-Treat (MITT) population included all patients who received any amount of study drug according to their randomized treatment group.
The primary efficacy endpoint was clinical response at the Test of Cure (TOC) visit in the co-primary CE and MITT populations (Table 2). […] In a subgroup analysis (CE population), the comparative clinical cure rates between the ceftaroline group and the vancomycin plus aztreonam group were not affected by age, gender, race, ethnicity, or weight.

[6] = test system: Community-Acquired Bacterial Pneumonia (CABP); assay: Two Phase 3 studies in CABP, integrated; format: in vivo, human; details: for Clinical Cure Rate at TOC / Treatment Difference in clinical cure rate at TOC: integrated CABP studies; for Clinical Cure Rate at TOC: after 5 to 7 days of therapy; for Treatment Difference in clinical cure rate at TOC / Weighted treatment difference (95% CI): versus ceftriaxone; for Weighted treatment difference (95% CI): combined CABP studies
Procedure: In both treatment groups of CABP Study 1, two doses of oral clarithromycin (500 mg q12h), were administered as adjunctive therapy starting on Study Day 1. No adjunctive macrolide therapy was used in CABP Study 2. Patients with new or progressive pulmonary infiltrate(s) on chest radiography and clinical signs and symptoms consistent with CABP with the need for hospitalization and IV therapy were enrolled in the studies. Treatment duration was 5 to 7 days. A switch to oral therapy was not allowed. The Modified Intent-to-Treat Efficacy (MITTE) population included all patients who received any amount of study drug according to their randomized treatment group and were in PORT (Pneumonia Outcomes Research Team) Risk Class III or IV.
The primary efficacy endpoint was the clinical response at the Test of Cure (TOC) visit in the co-primary CE and MITTE populations (Table 4). In a subgroup analysis (CE population), the comparative clinical cure rates between the ceftaroline group and the ceftriaxone group were not affected by age, gender, race, ethnicity, or weight.

MDRSP = assay: Example 4 CAP study, outcome by baseline pathogen; format: in vivo, Streptococcus pneumoniae
Description: (§1) Per-pathogen clinical cure rate and favorable microbiological outcome rate at TOC in the mMITTE and ME Populations;

S. pneumoniae = assay: Example 4 CAP study, outcome by baseline pathogen; format: in vivo, Streptococcus pneumoniae
Description: as §1

H. influenzae [7] = assay: Example 4 CAP study, outcome by baseline pathogen; format: in vivo, Haemophilus influenzae
Description: as §1

H. parainfluenzae [8] = assay: Example 4 CAP study, outcome by baseline pathogen; format: in vivo
Description: as §1

K. pneumoniae = assay: Example 4 CAP study, outcome by baseline pathogen; format: in vivo, Klebsiella pneumoniae
Description: as §1

H. parainfluenzae [9] = assay: Example 5 CAP study, outcome by baseline pathogen; format: in vivo, Haemophilus parainfluenzae
Description: as §1

H. influenzae [10] = assay: Example 5 CAP study, outcome by baseline pathogen; format: in vivo
Description: as §1

E. coli = assay: Example 5 CAP study, outcome by baseline pathogen; format: in vivo, Escherichia coli
Description: as §1

[11] = human, in vivo
[12] = human, in vivo; remark: listed apart in the source
CYP1A2 [13] = details: human hepatocytes
CYP2C19 = details: human hepatocytes
[14] = Example 4
Procedure: The 600-mg dose of ceftaroline fosamil infused over 60 minutes was split into two infusions in order to maintain the blind. For subjects with moderate renal impairment (30 ml/min<CrCl≦50 ml/min), as estimated by the Cockroft-Gault formula, unblinded pharmacy staff or unblinded study staff could adjust the dose of ceftaroline fosamil to two consecutive 200 mg infusions and readjust dose to two 300 mg infusions when renal function improved (CrCl>50 mL/min). The duration of treatment was between 5 to 7 days.
All subjects who received any amount of study drug were included in the safety analysis. Safety measures included monitoring for adverse events (AE) up to TOC and serious adverse events (SAE) through LFU; recording vital signs, physical examination, electrocardiogram (ECG), and clinical laboratory findings (clinical chemistry, hematology, and urinalysis), at prespecified times throughout the study.

T3 sequence (P20813 whole entry): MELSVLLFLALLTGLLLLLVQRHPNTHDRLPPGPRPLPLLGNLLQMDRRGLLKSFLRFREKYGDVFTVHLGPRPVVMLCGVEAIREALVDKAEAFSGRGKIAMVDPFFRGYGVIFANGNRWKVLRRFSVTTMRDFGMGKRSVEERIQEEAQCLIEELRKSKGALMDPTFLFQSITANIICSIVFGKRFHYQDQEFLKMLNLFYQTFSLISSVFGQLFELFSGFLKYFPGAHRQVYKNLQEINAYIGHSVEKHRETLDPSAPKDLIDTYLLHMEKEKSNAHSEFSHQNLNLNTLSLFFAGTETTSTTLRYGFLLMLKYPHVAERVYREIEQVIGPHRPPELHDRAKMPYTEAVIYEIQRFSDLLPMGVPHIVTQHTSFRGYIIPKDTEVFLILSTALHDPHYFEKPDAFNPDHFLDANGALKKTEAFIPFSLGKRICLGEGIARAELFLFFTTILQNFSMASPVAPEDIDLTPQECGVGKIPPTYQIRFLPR
T5 sequence (P05181 whole entry): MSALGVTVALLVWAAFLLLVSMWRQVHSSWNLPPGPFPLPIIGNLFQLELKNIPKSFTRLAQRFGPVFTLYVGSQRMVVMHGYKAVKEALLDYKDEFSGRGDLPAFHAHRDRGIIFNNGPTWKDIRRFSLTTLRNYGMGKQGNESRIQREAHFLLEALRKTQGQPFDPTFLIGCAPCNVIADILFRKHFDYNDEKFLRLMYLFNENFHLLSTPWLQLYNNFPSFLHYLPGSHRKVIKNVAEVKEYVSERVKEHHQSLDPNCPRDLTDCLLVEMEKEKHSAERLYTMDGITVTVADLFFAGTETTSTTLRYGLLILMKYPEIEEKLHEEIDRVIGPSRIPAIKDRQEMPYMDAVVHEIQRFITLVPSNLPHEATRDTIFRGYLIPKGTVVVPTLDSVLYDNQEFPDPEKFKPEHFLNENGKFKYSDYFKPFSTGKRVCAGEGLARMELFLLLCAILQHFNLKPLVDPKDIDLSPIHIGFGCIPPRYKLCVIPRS
T4 sequence (P10635 whole entry): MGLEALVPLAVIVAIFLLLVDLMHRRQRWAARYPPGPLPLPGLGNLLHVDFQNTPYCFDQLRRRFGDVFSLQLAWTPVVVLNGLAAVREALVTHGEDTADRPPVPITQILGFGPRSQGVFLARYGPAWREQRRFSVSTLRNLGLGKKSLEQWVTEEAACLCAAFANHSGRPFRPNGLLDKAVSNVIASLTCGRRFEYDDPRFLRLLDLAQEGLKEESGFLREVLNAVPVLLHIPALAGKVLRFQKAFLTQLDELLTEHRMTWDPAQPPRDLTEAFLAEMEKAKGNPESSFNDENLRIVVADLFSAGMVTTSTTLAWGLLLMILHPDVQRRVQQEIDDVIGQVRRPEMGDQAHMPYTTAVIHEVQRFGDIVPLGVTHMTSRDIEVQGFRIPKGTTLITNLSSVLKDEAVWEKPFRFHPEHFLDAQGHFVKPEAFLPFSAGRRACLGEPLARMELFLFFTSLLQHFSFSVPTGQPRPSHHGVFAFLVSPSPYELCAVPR
T2 sequence (P11509 whole entry): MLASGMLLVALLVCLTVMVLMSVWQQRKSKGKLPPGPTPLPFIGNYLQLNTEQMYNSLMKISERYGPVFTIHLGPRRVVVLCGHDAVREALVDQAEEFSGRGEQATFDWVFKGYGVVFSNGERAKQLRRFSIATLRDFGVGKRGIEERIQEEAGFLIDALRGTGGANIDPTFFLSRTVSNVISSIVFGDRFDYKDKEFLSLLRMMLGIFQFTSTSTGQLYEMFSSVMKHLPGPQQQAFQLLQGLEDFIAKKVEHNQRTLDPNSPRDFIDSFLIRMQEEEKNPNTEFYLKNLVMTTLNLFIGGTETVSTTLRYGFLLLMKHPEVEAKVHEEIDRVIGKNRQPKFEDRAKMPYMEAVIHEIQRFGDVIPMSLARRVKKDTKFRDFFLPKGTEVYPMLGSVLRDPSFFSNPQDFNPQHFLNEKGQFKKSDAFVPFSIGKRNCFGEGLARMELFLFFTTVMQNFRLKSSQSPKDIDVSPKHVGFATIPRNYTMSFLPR
Sequence of CYP1A2 (Homo sapiens, UniProt P05177) (P05177 whole entry): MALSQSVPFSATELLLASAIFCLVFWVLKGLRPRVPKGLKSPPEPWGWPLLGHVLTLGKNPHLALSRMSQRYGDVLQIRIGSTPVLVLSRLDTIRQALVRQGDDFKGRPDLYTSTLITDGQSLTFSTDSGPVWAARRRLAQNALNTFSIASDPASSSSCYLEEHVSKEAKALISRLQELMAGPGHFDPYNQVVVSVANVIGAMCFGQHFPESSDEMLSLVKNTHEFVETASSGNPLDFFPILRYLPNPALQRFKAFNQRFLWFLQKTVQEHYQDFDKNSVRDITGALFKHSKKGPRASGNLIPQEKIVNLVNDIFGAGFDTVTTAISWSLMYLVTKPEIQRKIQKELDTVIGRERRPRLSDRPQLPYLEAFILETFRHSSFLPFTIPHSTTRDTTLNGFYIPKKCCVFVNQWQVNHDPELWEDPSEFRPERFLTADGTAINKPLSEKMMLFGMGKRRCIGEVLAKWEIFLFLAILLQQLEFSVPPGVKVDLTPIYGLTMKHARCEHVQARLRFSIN
T1 sequence (P04798 whole entry): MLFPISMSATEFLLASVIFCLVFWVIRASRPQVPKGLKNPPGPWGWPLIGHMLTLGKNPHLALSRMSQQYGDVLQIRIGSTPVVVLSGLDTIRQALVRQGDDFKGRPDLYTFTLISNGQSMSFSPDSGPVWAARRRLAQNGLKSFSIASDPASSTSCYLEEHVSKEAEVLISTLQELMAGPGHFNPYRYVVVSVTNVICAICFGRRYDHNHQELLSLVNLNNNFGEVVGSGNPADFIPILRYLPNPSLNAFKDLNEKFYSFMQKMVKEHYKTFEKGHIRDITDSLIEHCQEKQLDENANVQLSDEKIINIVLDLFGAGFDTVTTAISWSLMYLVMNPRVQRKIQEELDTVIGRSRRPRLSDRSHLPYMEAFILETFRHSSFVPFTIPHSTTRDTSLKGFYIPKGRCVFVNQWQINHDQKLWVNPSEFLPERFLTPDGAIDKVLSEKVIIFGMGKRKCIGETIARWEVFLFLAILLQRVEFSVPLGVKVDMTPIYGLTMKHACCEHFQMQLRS
T6 sequence (P08684 whole entry): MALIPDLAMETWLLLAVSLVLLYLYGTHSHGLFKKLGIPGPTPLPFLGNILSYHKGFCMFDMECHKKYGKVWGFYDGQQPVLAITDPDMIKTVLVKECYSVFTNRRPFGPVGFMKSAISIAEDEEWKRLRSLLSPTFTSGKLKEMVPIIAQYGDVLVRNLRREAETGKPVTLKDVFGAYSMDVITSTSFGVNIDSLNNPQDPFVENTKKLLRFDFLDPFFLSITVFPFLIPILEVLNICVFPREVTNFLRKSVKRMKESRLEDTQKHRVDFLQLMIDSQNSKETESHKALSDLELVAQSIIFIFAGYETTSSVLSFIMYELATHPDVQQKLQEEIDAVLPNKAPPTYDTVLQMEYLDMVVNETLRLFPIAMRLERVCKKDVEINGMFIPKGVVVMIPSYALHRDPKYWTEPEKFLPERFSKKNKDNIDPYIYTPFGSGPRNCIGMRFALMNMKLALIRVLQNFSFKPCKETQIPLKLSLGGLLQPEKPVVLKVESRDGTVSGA

With CCO/N=C(\C(=O)N[C@@H]1C(=O)N2C(C(=O)[O-])=C(Sc3nc(-c4cc[n+](C)cc4)cs3)CS[C@H]12)c1nsc(N)n1 [Ceftaroline] the “Cmax, elderly versus younger subjects” value [1] was “not significantly different”, the “inhibition of CYP1A1” value (CYP1A1) was “neither ceftaroline fosamil nor ceftaroline inhibits” and the “inhibition of CYP1A2” value (CYP1A2 [2]) was “neither ceftaroline fosamil nor ceftaroline inhibits”. The “inhibition of CYP2A6” value (CYP2A6) was “neither ceftaroline fosamil nor ceftaroline inhibits”, the “inhibition of CYP2B6” value (CYP2B6 [3]) was “neither ceftaroline fosamil nor ceftaroline inhibits” and the “inhibition of CYP2D6” value (CYP2D6) was “neither ceftaroline fosamil nor ceftaroline inhibits”. The “inhibition of CYP2E1” value (CYP2E1) was “neither ceftaroline fosamil nor ceftaroline inhibits”, the “inhibition of CYP3A4” value (CYP3A4) was “neither ceftaroline fosamil nor ceftaroline inhibits” and the “induction of CYP2B6” value (CYP2B6 [4]) was “not inducers”. The “induction of CYP2C9” value (CYP2C9) was “not inducers”, the “clinical response at TOC compared with vancomycin plus aztreonam” value [5] was “non-inferior” and the “Clinical Cure Rate at TOC” value ([6]; CE population) was 387/459 (84.3) %. For the same molecule, the “Clinical Cure Rate at TOC” value ([6]; MITTE population) was 479/580 (82.6) %, the “Treatment Difference in clinical cure rate at TOC” value (shortened to “Treatment Difference … at TOC”) ([6]; CE) was 6.7 (1.6, 11.8) % and the “Treatment Difference … at TOC” value ([6]; CE, listed as ceftaroline) was 6.7%. For the same molecule, the “Weighted treatment difference (95% CI)” value ([6]; ME) was 9.7 (0.7, 18.8) %, the “Weighted treatment difference (95% CI)” value ([6]; ME, listed as ceftaroline) was 9.7% and the “Treatment Difference … at TOC” value ([6]; MITTE) was 6.0 (1.4, 10.7) %. For the same molecule, the “Weighted treatment difference (95% CI)” value ([6]; mMITTE) was 8.7 (−0.0, 17.4) %, the “Weighted treatment difference (95% CI)” value ([6]; mMITTE, listed as ceftaroline) was 8.7% and the “Favorable Microbiological Outcome at TOC by Baseline Pathogen” value (shortened to “Favorable Microbiological Outcome at TOC”) (MDRSP; ME) was 2/2 (100.0) %. The “Clinical Cure Rate at the TOC Visit by Baseline Pathogen” value (from here on “Clinical Cure Rate at the TOC Visit”) (MDRSP; ME population) was 2/2 (100.0) %, the “Favorable Microbiological Outcome at TOC” value (S. pneumoniae; ME) was 35/39 (89.7) % and the “Clinical Cure Rate at the TOC Visit” value (S. pneumoniae; ME population) was 33/39 (84.6) %. The “Favorable Microbiological Outcome at TOC” value (H. influenzae [7]; ME) was 13/15 (86.7) %, the “Clinical Cure Rate at the TOC Visit” value (H. influenzae [7]; ME population) was 13/15 (86.7) % and the “Favorable Microbiological Outcome at TOC” value (H. parainfluenzae [8]; ME) was 9/9 (100.0) %. For the same molecule, the “Clinical Cure Rate at the TOC Visit” value (H. parainfluenzae [8]; ME population) was 9/9 (100.0) %, the “Favorable Microbiological Outcome at TOC” value (K. pneumoniae; ME) was 6/6 (100.0) % and the “Clinical Cure Rate at the TOC Visit” value (K. pneumoniae; ME population) was 6/6 (100.0) %. For the same molecule, the “Favorable Microbiological Outcome at TOC” value (H. parainfluenzae [9]; ME) was 7/7 (100.0) %, the “Clinical Cure Rate at the TOC Visit” value (H. parainfluenzae [9]; ME population) was 7/7 (100.0) % and the “Favorable Microbiological Outcome at TOC” value (H. influenzae [10]; ME) was 2/3 (66.7) %. For the same molecule, the “Clinical Cure Rate at the TOC Visit” value (H. influenzae [10]; ME population) was 2/3 (66.7) %, the “Favorable Microbiological Outcome at TOC” value (E. coli; ME) was 8/8 (100.0) % and the “Clinical Cure Rate at the TOC Visit” value (E. coli; ME population) was 8/8 (100.0) %. For the same molecule, the “AUC higher in female than in male subjects” value [11] was 6-15%, the “Cmax higher in female than in male subjects” value [11] was 17-22% and the “exposure (Cmax and AUC) with concomitant inhibitors, inducers and substrates of cytochrome P450” value [12] was “did not identify any clinically relevant increases”. The “induction of CYP1A2” value (CYP1A2 [13]) was “not inducers”, the “induction of CYP2C19” value (CYP2C19) was “not inducers” and the “TEAEs leading to premature discontinuation from study drug administration” value [14] was 0.6%. For the same molecule, the “any study-drug-related TEAEs, subjects” value [14] was 12.4%, the “study-drug-related TEAE: headache” value [14] was 0.6% and the “Early withdrawal from study, reason Adverse Event” value ([14]; MITTE population) was 8 (2.8) %. The “Any AE (TEAE), subjects” value ([14]; Safety population) was 169 (53.7) %, the “COPD, subjects” value ([14]; Safety population) was 8 (2.5) % and the “Diarrhea, subjects” value ([14]; Safety population) was 12 (3.8) %. For the same molecule, the “Headache, subjects” value ([14]; Safety population) was 11 (3.5) %, the “Hypertension, subjects” value ([14]; Safety population) was 8 (2.5) % and the “Hypokalemia, subjects” value ([14]; Safety population) was 10 (3.2) %. The “Insomnia, subjects” value ([14]; Safety population) was 10 (3.2) %, the “Nausea, subjects” value ([14]; Safety population) was 6 ( 1.9) % and the “Phlebitis, subjects” value ([14]; Safety population) was 10 (3.2) %. The “Pleural effusion, subjects” value ([14]; Safety population) was 4 (1.3) %, the “Pneumonia, subjects” value ([14]; Safety population) was 8 (2.5) % and the “Any AE (TEAE), subjects” value ([14]; Safety population, listed as ceftaroline) was 53.7%.
